Key:
Type in all cases: functional
[1] = test system: RPMI-8226; experiment: Cytotoxicity against human RPMI8226 cells assessed as growth inhibition
[2] = test system: HL-60(TB); experiment: Cytotoxicity against human HL-60(TB) cells assessed as growth inhibition
[3] = test system: K562; experiment: Cytotoxicity against human K562 cells assessed as growth inhibition
[4] = test system: CCRF-CEM; experiment: Cytotoxicity against human CCRF-CEM cells assessed as growth inhibition
[5] = test system: MDA-MB-468; experiment: Cytotoxicity against human MDA-MB-468 cells assessed as growth inhibition
[6] = test system: T47D; experiment: Cytotoxicity against human T47D cells assessed as growth inhibition
[7] = test system: BT-549; experiment: Cytotoxicity against human BT549 cells assessed as growth inhibition
[8] = Cytotoxicity against human Hs 578T cells assessed as growth inhibition
[9] = test system: MDA-MB-231; experiment: Cytotoxicity against human MDA-MB-231 cells assessed as growth inhibition
[10] = test system: MCF7; experiment: Cytotoxicity against human MCF7 cells assessed as growth inhibition
[11] = test system: DU-145; experiment: Cytotoxicity against human DU145 cells assessed as growth inhibition
[12] = test system: PC-3; experiment: Cytotoxicity against human PC3 cells assessed as growth inhibition
[13] = test system: TK-10; experiment: Cytotoxicity against human TK10 cells assessed as growth inhibition
[14] = Cytotoxicity against human UO31 cells assessed as growth inhibition; conditions: UO-31
[15] = test system: SN12C; experiment: Cytotoxicity against human SN12C cells assessed as growth inhibition
[16] = test system: RXF 393; experiment: Cytotoxicity against human RXF393 cells assessed as growth inhibition
[17] = test system: CAKI-1; experiment: Cytotoxicity against human CAKI-1 cells assessed as growth inhibition
[18] = test system: ACHN; experiment: Cytotoxicity against human ACHN cells assessed as growth inhibition
[19] = test system: 786-0; experiment: Cytotoxicity against human 786-0 cells assessed as growth inhibition
[20] = test system: A498; experiment: Cytotoxicity against human A498 cells assessed as growth inhibition
[21] = test system: SK-OV-3; experiment: Cytotoxicity against human SKOV3 cells assessed as growth inhibition
[22] = Cytotoxicity against human NCI-ADR-RES cells assessed as growth inhibition
[23] = Cytotoxicity against human OVCAR8 cells assessed as growth inhibition; conditions: OVCAR-8
[24] = Cytotoxicity against human OVCAR5 cells assessed as growth inhibition; conditions: OVCAR-5
[25] = Cytotoxicity against human OVCAR4 cells assessed as growth inhibition; conditions: OVCAR-4
[26] = Cytotoxicity against human OVCAR3 cells assessed as growth inhibition; conditions: OVCAR-3
[27] = Cytotoxicity against human UACC62 cells assessed as growth inhibition; conditions: UACC-62
[28] = test system: IGROV-1; experiment: Cytotoxicity against human IGROV1 cells assessed as growth inhibition
[29] = Cytotoxicity against human UACC257 cells assessed as growth inhibition; conditions: UACC-257
[30] = test system: SK-MEL-5; experiment: Cytotoxicity against human SK-MEL-5 cells assessed as growth inhibition
[31] = test system: SK-MEL-28; experiment: Cytotoxicity against human SK-MEL-28 cells assessed as growth inhibition
[32] = test system: SK-MEL-2; experiment: Cytotoxicity against human SK-MEL-2 cells assessed as growth inhibition
[33] = test system: MDA-MB-435; experiment: Cytotoxicity against human MDA-MB-435 cells assessed as growth inhibition
[34] = test system: M14; experiment: Cytotoxicity against human M14 cells assessed as growth inhibition
[35] = test system: Malme-3M; experiment: Cytotoxicity against human MALME-3M cells assessed as growth inhibition
[36] = test system: LOX IMVI; experiment: Cytotoxicity against human LOXIMVI cells assessed as growth inhibition
[37] = test system: U-251; experiment: Cytotoxicity against human U251 cells assessed as growth inhibition
[38] = test system: SNB-75; experiment: Cytotoxicity against human SNB75 cells assessed as growth inhibition
[39] = test system: SNB-19; experiment: Cytotoxicity against human SNB19 cells assessed as growth inhibition
[40] = test system: SF-295; experiment: Cytotoxicity against human SF295 cells assessed as growth inhibition
[41] = test system: SF-539; experiment: Cytotoxicity against human SF539 cells assessed as growth inhibition
[42] = test system: SF-268; experiment: Cytotoxicity against human SF268 cells assessed as growth inhibition
[43] = test system: SW-620; experiment: Cytotoxicity against human SW620 cells assessed as growth inhibition
[44] = test system: KM12; experiment: Cytotoxicity against human KM12 cells assessed as growth inhibition
[45] = test system: HT-29; experiment: Cytotoxicity against human HT-29 cells assessed as growth inhibition
[46] = Cytotoxicity against human HCT15 cells assessed as growth inhibition; conditions: HCT-15
[47] = test system: HCT-116; experiment: Cytotoxicity against human HCT116 cells assessed as growth inhibition
[48] = test system: HCC 2998; experiment: Cytotoxicity against human HCC2998 cells assessed as growth inhibition
[49] = test system: NCI-H522; experiment: Cytotoxicity against human NCI-H522 cells assessed as growth inhibition
[50] = test system: COLO 205; experiment: Cytotoxicity against human COLO205 cells assessed as growth inhibition
[51] = test system: NCI-H460; experiment: Cytotoxicity against human NCI-H460 cells assessed as growth inhibition
[52] = test system: NCI-H23; experiment: Cytotoxicity against human NCI-H23 cells assessed as growth inhibition
[53] = test system: NCI-H322M; experiment: Cytotoxicity against human NCI-H322M cells assessed as growth inhibition
[54] = test system: NCI-H226; experiment: Cytotoxicity against human NCI-H226 cells assessed as growth inhibition
[55] = test system: HOP-62; experiment: Cytotoxicity against human HOP62 cells assessed as growth inhibition
[56] = test system: HOP-92; experiment: Cytotoxicity against human HOP92 cells assessed as growth inhibition
[57] = test system: A549; experiment: Cytotoxicity against human A549 cells assessed as growth inhibition
[58] = Cytotoxicity against human EKVX cells assessed as growth inhibition
[59] = test system: SR; experiment: Cytotoxicity against human SR cells assessed as growth inhibition
[60] = test system: MOLT-4; experiment: Cytotoxicity against human MOLT4 cells assessed as growth inhibition

SMILES: Cc1cc(/C=C2\CCc3c(n(C)c4ccccc34)C2=O)cc(C)c1O
- GI50 [1]: 0.76 µM
- GI50 [2]: 0.34 µM
- GI50 [3]: 0.33 µM
- GI50 [4]: 0.74 µM
- GI50 [5]: 0.31 µM
- GI50 [6]: 2.06 µM
- GI50 [7]: 2.84 µM
- GI50 [8]: 0.73 µM
- GI50 [9]: 1.06 µM
- GI50 [10]: 0.37 µM
- GI50 [11]: 1.85 µM
- GI50 [12]: 2.49 µM
- GI50 [13]: 1.08 µM
- GI50 [14]: 0.73 µM
- GI50 [15]: 0.72 µM
- GI50 [16]: 1.08 µM
- GI50 [17]: 0.84 µM
- GI50 [18]: 0.83 µM
- GI50 [19]: 3.25 µM
- GI50 [20]: 3.39 µM
- GI50 [21]: 1.52 µM
- GI50 [22]: 0.34 µM
- GI50 [23]: 0.92 µM
- GI50 [24]: 5.1 µM
- GI50 [25]: 3.87 µM
- GI50 [26]: 0.35 µM
- GI50 [27]: 0.41 µM
- GI50 [28]: 1.59 µM
- GI50 [29]: 5.83 µM
- GI50 [30]: 0.41 µM
- GI50 [31]: 0.64 µM
- GI50 [32]: 0.33 µM
- GI50 [33]: 0.16 µM
- GI50 [34]: 0.39 µM
- GI50 [35]: 0.45 µM
- GI50 [36]: 0.7 µM
- GI50 [37]: 0.54 µM
- GI50 [38]: 0.41 µM
- GI50 [39]: 0.63 µM
- GI50 [40]: 1.48 µM
- GI50 [41]: 0.7 µM
- GI50 [42]: 0.72 µM
- GI50 [43]: 0.43 µM
- GI50 [44]: 0.45 µM
- GI50 [45]: 4.18 µM
- GI50 [46]: 0.51 µM
- GI50 [47]: 0.39 µM
- GI50 [48]: 3.61 µM
- GI50 [49]: 0.14 µM
- GI50 [50]: 22.9 µM
- GI50 [51]: 0.39 µM
- GI50 [52]: 2.53 µM
- GI50 [53]: 2.73 µM
- GI50 [54]: 4.38 µM
- GI50 [55]: 0.72 µM
- GI50 [56]: 6.56 µM
- GI50 [57]: 0.74 µM
- GI50 [58]: 4.84 µM
- GI50 [59]: 0.34 µM
- GI50 [60]: 0.8 µM
